Experimental data from ChEMBL document CHEMBL4706540, “Targeting estrogen receptor α for degradation with PROTACs: A promising approach to overcome endocrine resistance” (Eur J Med Chem, 2020).

Experiments:
T47D [1] = test: Antiproliferative activity against human T47D cells incubated for 6 days with replacement of medium every 2 to 3 days by MTT assay relative to control; format: functional; conditions: time 6 day
MCF7 [2] = test: Antiproliferative activity against human MCF7 cells incubated for 6 days with replacement of medium every 2 to 3 days by MTT assay relative to control; format: functional; conditions: time 6 day
[3] = molecular target: T1, von Hippel-Lindau disease tumor suppressor/Estrogen receptor (Homo sapiens, UniProt P03372+P40337); test: Induction of VHL-mediated ERalpha degradation in human MCF7 cells assessed as maximum degradation by western blot analysis relative to control; format: cell-based
Target sequence in this assay (P40337 whole entry, looked up, one chain of several): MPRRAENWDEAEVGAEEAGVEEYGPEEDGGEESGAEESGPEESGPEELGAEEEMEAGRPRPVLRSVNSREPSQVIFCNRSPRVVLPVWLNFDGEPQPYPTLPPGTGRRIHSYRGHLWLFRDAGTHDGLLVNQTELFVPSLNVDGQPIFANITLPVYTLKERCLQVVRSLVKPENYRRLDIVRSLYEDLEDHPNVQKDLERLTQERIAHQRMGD

[4] = molecular target: T1, von Hippel-Lindau disease tumor suppressor/Estrogen receptor; test: Induction of VHL-mediated ERalpha degradation in human T47D cells by western blot analysis; format: cell-based
Target sequence in this assay (P40337 whole entry, one chain of several): as the sequence (P40337 whole entry, looked up, one chain of several) above

MCF7 [5] = test: Antiproliferative activity against human MCF7 cells incubated for 6 days with replacement of medium every 2 to 3 days by MTT assay; format: functional, cell-based
[6] = molecular target: T1, von Hippel-Lindau disease tumor suppressor/Estrogen receptor; test: Induction of VHL-mediated ERalpha degradation in human MCF7 cells by western blot analysis; format: cell-based
Target sequence in this assay (P40337 whole entry, one chain of several): as the sequence (P40337 whole entry, looked up, one chain of several) above

[7] = molecular target: T1, von Hippel-Lindau disease tumor suppressor/Estrogen receptor; test: Induction of VHL-mediated ERalpha degradation in human T47D cells assessed as maximum degradation by western blot analysis relative to control; format: cell-based
Target sequence in this assay (P40337 whole entry, looked up, one chain of several): as above

T47D [8] = test: Antiproliferative activity against human T47D cells incubated for 6 days with replacement of medium every 2 to 3 days by MTT assay; format: functional, cell-based
MCF7 [9] = test: Induction of IAP-mediated estrogen receptor alpha degradation in human MCF7 cells at <1 uM by western blot analysis relative to control; format: cell-based; conditions: dose microM <1
T47D [10] = test: Antiproliferative activity against human T47D cells incubated for 72 hrs by crystal violet staining based assay; format: functional, cell-based
Estrogen receptor = molecular target: T2, Estrogen receptor (Homo sapiens, UniProt P03372); test: Induction of XIAP-mediated estrogen receptor alpha degradation in human MCF7 cells incubated for 4 hrs by western blot analysis; format: cell-based
T2 sequence (P03372 whole entry): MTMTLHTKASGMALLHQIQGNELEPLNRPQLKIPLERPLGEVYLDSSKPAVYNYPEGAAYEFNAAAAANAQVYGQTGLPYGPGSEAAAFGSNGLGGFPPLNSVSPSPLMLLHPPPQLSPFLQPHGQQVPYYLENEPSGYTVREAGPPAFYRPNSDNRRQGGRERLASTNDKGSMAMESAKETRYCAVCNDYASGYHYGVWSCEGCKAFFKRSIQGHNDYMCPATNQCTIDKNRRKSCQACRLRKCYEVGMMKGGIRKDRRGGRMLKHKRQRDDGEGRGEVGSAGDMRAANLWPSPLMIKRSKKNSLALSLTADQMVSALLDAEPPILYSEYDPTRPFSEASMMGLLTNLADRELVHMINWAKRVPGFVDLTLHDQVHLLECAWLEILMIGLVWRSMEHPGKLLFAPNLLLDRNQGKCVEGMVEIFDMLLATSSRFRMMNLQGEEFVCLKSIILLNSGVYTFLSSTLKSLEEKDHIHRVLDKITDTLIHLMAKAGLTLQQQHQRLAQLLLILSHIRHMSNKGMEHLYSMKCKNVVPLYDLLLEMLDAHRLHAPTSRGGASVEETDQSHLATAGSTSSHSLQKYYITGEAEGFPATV

MCF7 [11] = test: Antiproliferative activity against human MCF7 cells incubated for 72 hrs by crystal violet staining based assay; format: functional, cell-based; conditions: MCF7, 72 h
MCF7 [12] = test: Growth inhibition of human MCF7 cells harboring ER Y537S mutant incubated for 5 days by PrestoBlue cell viability assay; format: functional, cell-based; conditions: MCF7, 120 h
MCF7 [13] = test: Growth inhibition of human MCF7 cells harboring ER D538G mutant incubated for 5 days by PrestoBlue cell viability assay; format: functional, cell-based; conditions: MCF7, 120 h
MCF7 [14] = test: Growth inhibition of human MCF7 cells harboring wild type estrogen receptor incubated for 5 days by PrestoBlue cell viability assay; format: functional, cell-based; conditions: MCF7, 120 h

Row | Imax [3] | IC50 (MCF7 [5]) | DC50 [6] | IC50 (T47D [8]) | DC50 (Estrogen receptor) | SMILES | Imax (T47D [1]) | Imax (MCF7 [2]) | other results
1 | 95% | 69.1 nM | 7.7 nM | 65.2 nM |  | Cc1ncsc1-c1ccc([C@H](C)NC(=O)[C@@H]2C[C@@H](O)CN2C(=O)[C@@H](NC(=O)CCCCOc2ccc(/C=N/NC(=O)c3ccc(C(=O)c4c(-c5ccc(O)cc5)sc5cc(O)ccc45)cc3)cc2)C(C)(C)C)cc1 | 73% | 60% | DC50 [4]: 10.3 nM; Imax [7]: > 95%
2 |  |  |  |  |  | CN[C@@H](C)C(=O)N[C@H](C(=O)N1Cc2cc(OCCOCCOCCOCCOc3ccc(Oc4c(-c5ccc(O)cc5)sc5cc(O)ccc45)cc3)ccc2C[C@H]1C(=O)N[C@@H]1CCCc2ccccc21)C(C)(C)C |  |  | Activity (MCF7 [9]): > 50%
3 |  |  |  |  | < 3 nM | CCC(=C(c1ccc(O)cc1)c1ccc(OCCN(C)C(=O)COCCOCCOCCOc2cccc(C(=O)c3csc([C@@H]4CCCN4C(=O)[C@@H](NC(=O)[C@H](C)NC)C4CCCCC4)n3)c2)cc1)c1ccccc1 |  |  | IC50 (T47D [10]): 9.6 nM; IC50 (MCF7 [11]): 15.6 nM
4 |  |  |  |  | < 3 nM | CCC(=C(c1ccc(O)cc1)c1ccc(OCCN(C)C(=O)COCCOCCOCCOc2cccc(O[C@H]3C[C@@H](C(=O)N[C@@H]4CCCc5ccccc54)N(C(=O)[C@@H](NC(=O)[C@H](C)NC)C4CCCCC4)C3)c2)cc1)c1ccccc1 |  |  | 
5 | 98% | 13.2 nM | 1.13 nM | 17 nM |  | Cc1ncsc1-c1ccc([C@H](C)NC(=O)[C@@H]2C[C@@H](O)CN2C(=O)[C@@H](NC(=O)CCCCOc2ccc(CNNC(=O)c3ccc(C(=O)c4c(-c5ccc(O)cc5)sc5cc(O)ccc45)cc3)cc2)C(C)(C)C)cc1 | 78% | 69% | 
6 |  |  |  |  |  | CCN(CCCCCCCC(=O)N[C@H](C(=O)N1C[C@H](O)C[C@H]1C(=O)N[C@@H](C)c1ccc(-c2scnc2C)cc1)C(C)(C)C)CCOc1ccc(C(=O)c2c(-c3ccc(O)cc3)sc3cc(O)ccc23)cc1 |  |  | IC50 (MCF7 [12]): 10.5 nM; IC50 (MCF7 [13]): 6.1 nM; IC50 (MCF7 [14]): 0.8 nM
